In patent US7244583B2, “Device for detecting bacterial contamination and method of use” (priority 2000, dated 2007):
*: point of attachment. DABSYL = CN(C)c1ccc(/N=N/c2ccc(S(=O)(=O)*)cc2)cc1; EDANS = O=S(=O)(O)c1cccc2c(NCCN*)cccc12

Legend:
[1] = tested on: E. coli; test: FRET peptide substrate cleavage/detection with E. coli; format: biochemical; conditions: FRET peptide probe
[2] = tested on: mpl; test: FRET analysis of mpl activity with DABCYL/EDANS-labeled peptide substrates (Listeria); format: biochemical, Listeria monocytogenes; conditions: FRET peptide probe
Description: The presence of L. monocytogenes contamination is detected by measuring the metalloprotease (mpl), which is found only in the pathogenic species of L. monocytogenes (Domann et al., infection and Immunity. 1991. January; 59(1):65-72; Mengaud et al., 1991). A series of peptides, M1 (lot 038-13/15) and P1 (lot 038-10/12), for use as synthetic substrates for mpl (Table 1) was designed and the sequences manufactured by New England Peptide (195 Kimball St., Fitchburg, Mass.). The peptides were synthesized with fluorescent groups (DABCYL and EDANS) in such a way that the active sites were not blocked. The M1 peptide is specific for L. monocytogenes at pH 5.5.
Fluorescence resonance energy transfer (FRET) is the process of a distance dependent excited state interaction in which the emission of one fluorescent molecule is coupled to the excitation of another. […] The cleavage reaction can be followed by observing either a decrease in DABCYL fluorescence or an increase in EDANS fluorescence (loss of quenching).
Determine the peptide sequence for the active site of the protease using fluorescence resonance energy transfer (FRET). Fluorescence resonance energy transfer (FRET) is the process of a distance dependent excited state interaction in which the emission of one fluorescent molecule is coupled to the excitation of another. […]

Substance | Description: cleavage by E. coli [1] | Description: cleavage by Listeria [2] | detection of the presence of E. coli by the peptide ([1]; pH 5.5) | Description: specificity of peptide substrate for Listeria (L. monocytogenes) ([2]; pH 5.5)
DABSYL-ADTVEPTGAKE-EDANS ({DABSYL}-ADTVEPTGAKE-{EDANS}; SMILES CC(C)[C@H](NC(=O)[C@@H](NC(=O)[C@H](CC(=O)O)NC(=O)[C@H](C)NS(=O)(=O)c1ccc(/N=N/c2ccc(N(C)C)cc2)cc1)[C@@H](C)O)C(=O)N[C@@H](CCC(=O)O)C(=O)N1CCC[C@H]1C(=O)N[C@H](C(=O)NCC(=O)N[C@@H](C)C(=O)N[C@@H](CCCCN)C(=O)N[C@@H](CCC(=O)O)C(=O)NCCNc1cccc2c(S(=O)(=O)O)cccc12)[C@@H](C)O) [Peptide P2, FRET-labeled synthetic peptide probe] | Not cleaved | Not cleaved | – | –
DABSYL-NML, SEVERE-EDANS ({DABSYL}-NMLSEVERE-{EDANS}; SMILES CSCC[C@H](NC(=O)[C@H](CC(N)=O)NS(=O)(=O)c1ccc(/N=N/c2ccc(N(C)C)cc2)cc1)C(=O)N[C@@H](CC(C)C)C(=O)N[C@@H](CO)C(=O)N[C@@H](CCC(=O)O)C(=O)N[C@H](C(=O)N[C@@H](CCC(=O)O)C(=O)N[C@@H](CCCNC(=N)N)C(=O)N[C@@H](CCC(=O)O)C(=O)NCCNc1cccc2c(S(=O)(=O)O)cccc12)C(C)C) [Peptide M1, FRET-labeled synthetic peptide substrate for mpl of L. monocytogenes (lot 038-13/15)] | – | – | does not significantly detect | Specific to
